Test system: MT-4 cells
Test: Cytotoxicity test in MT-4 cells (MTT method)
Assay type: cell-based
Conditions: not given

SMILES | CC60 (μM) ** : concentration at 50% cell damage with respect to MT-4 cells [µM]
Cc1nc2c(c(C)c(C)n2C)c(-c2ccc3c(c2Cl)CCCO3)c1[C@H](OC(C)(C)C)C(=O)O [Example 72, (S)-2-(tert-butoxy)-2-((R)-4-(5-chlorochroman-6-yl)-1,2,3,6-tetramethyl-1H-pyrrolo[2,3-b]pyridin-5-yl)acetic acid] | 16.18
Cc1nc2c(c(C)c(C)n2C)c(-c2cc(F)c3c(c2C)CCCO3)c1[C@H](OC(C)(C)C)C(=O)O [Example 74, (S)-2-(Tert-butoxy)-2-((R)-4-(8-fluoro-5-methylchroman-6-yl)-1,2,3,6-tetramethyl-1H-pyrrolo[2,3-b]pyridin-5-yl)acetic acid] | 23.92
Cc1nc2c(c(C)c(C)n2C)c(-c2cc(F)c3c(c2C)CCCO3)c1[C@H](OC(C)(C)C)C(=O)O [Example 75, (S)-2-(tert-butoxy)-2-((S)-4-(8-fluoro-5-methylchroman-6-yl)-1,2,3,6-tetramethyl-1H-pyrrolo[2,3-b]pyridin-5-yl)acetic acid] | 37.22

Same assay, conditions: human

SMILES | CC60 (μM) ** : concentration at 50% cell damage with respect to MT-4 cells [µM]
Cc1nc2c(c(C)c(C)n2Cc2cc[nH]n2)c(-c2ccc(Cl)cc2)c1[C@H](OC(C)(C)C)C(=O)O [Example 45, (S)-2-(1-((1H-pyrazol-3-yl)methyl)-4-(4-chlorophenyl)-2,3,6-trimethyl-1H-pyrrolo[2,3-b]pyridin-5-yl)-2-(tert-butoxy)acetic acid] | 19.33
Cc1nc2c(c(C)c(C)n2Cc2cn[nH]c2)c(-c2ccc(Cl)cc2)c1[C@H](OC(C)(C)C)C(=O)O [Example 46, (S)-2-(1-((1H-Pyrazol-4-yl)methyl)-4-(4-chlorophenyl)-2,3,6-trimethyl-1H-pyrrolo[2,3-b]pyridin-5-yl)-2-(tert-butoxy)acetic acid] | 20.89
Cc1nc2c(c(C)c(C)n2CCN2CCCC2)c(-c2ccc(Cl)cc2)c1[C@H](OC(C)(C)C)C(=O)O [Example 71] | 73.54
Cc1nc2c(c(C)c(C)n2C)c(-c2ccc3c(c2Cl)CCCO3)c1[C@H](OC(C)(C)C)C(=O)O [Example 73, (S)-2-(tert-butoxy)-2-((S)-4-(5-chlorochroman-6-yl)-1,2,3,6-tetramethyl-1H-pyrrolo[2,3-b]pyridin-5-yl)acetic acid] | 25.1
Cc1nc2c(c(C)c(C)n2CC2CC2)c(-c2cc(F)c3c(c2C)CCCO3)c1[C@H](OC(C)(C)C)C(=O)O [Example 76, (S)-2-(Tert-butoxy)-2-((R)-1-(cyclopropylmethyl)-4-((R)-8-fluoro-5-methylchroman-6-yl)-2,3,6-trimethyl-1H-pyrrolo[2,3-b]pyridin-5-yl)acetic acid] | 13.94
Cc1nc2c(c(C)c(C)n2Cc2cnccn2)c(-c2ccc(Cl)cc2)c1[C@H](OC(C)(C)C)C(=O)O [Example 77, (S)-2-(Tert-butoxy)-2-(4-(4-chlorophenyl)-2,3,6-trimethyl-1-(pyrazin-2-ylmethyl)-1H-pyrrolo[2,3-b]pyridin-5-yl)acetic acid] | 38.86
COCCn1c(C)c(C)c2c(-c3ccc(Cl)cc3)c([C@H](OC(C)(C)C)C(=O)O)c(C)nc21 [Example 78, (S)-2-(tert-butoxy)-2-(4-(4-chlorophenyl)-1-(2-methoxyethyl)-2,3,6-trimethyl-1H-pyrrolo[2,3-b]pyridin-5-yl)acetic acid] | 18.36
Cc1nc2c(c(C)c(C)n2Cc2ccn(C)n2)c(-c2ccc(Cl)cc2)c1[C@H](OC(C)(C)C)C(=O)O [Example 79, (S)-2-(tert-butoxy)-2-(4-(4-chlorophenyl)-2,3,6-trimethyl-1-((1-methyl-1H-pyrazol-3-yl)methyl)-1H-pyrrolo[2,3-b]pyridin-5-yl)acetic acid] | 25.09

Test system: not given
Test: not given
Conditions: not given

SMILES | melting point [°C]
Cc1nc2c(c(C)c(C)n2Cc2cc[nH]n2)c(-c2ccc(Cl)cc2)c1[C@H](OC(C)(C)C)C(=O)O [Example 45, (S)-2-(1-((1H-pyrazol-3-yl)methyl)-4-(4-chlorophenyl)-2,3,6-trimethyl-1H-pyrrolo[2,3-b]pyridin-5-yl)-2-(tert-butoxy)acetic acid] | 140
Cc1nc2c(c(C)c(C)n2Cc2cn[nH]c2)c(-c2ccc(Cl)cc2)c1[C@H](OC(C)(C)C)C(=O)O [Example 46, (S)-2-(1-((1H-Pyrazol-4-yl)methyl)-4-(4-chlorophenyl)-2,3,6-trimethyl-1H-pyrrolo[2,3-b]pyridin-5-yl)-2-(tert-butoxy)acetic acid] | > 230
